Experimental data as given in patent US9243254B2, “Method for transforming a bacterium belonging to the streptococcus genus by natural competence” (priority 2009, dated 2016).

How the values were obtained:
[1] = system: LMD9-Δblp::PcomX-luxABΔshp316::P32-cat; experiment: Natural transformation in CDM of the shp316-deleted strain upon addition of synthetic peptides (test A); type: cell-based, Streptococcus thermophilus; conditions: for Transformation rate, With peptide addition / Restoration of the competence defect: 1 μM synthetic peptide; for Transformation rate, With peptide addition / Transformation rate: 1 μg/mL pGIUD0855ery; for Transformation rate, With peptide addition: CDM, erythromycin selection
Procedure: A mutant strain of LMD-9 in which the shp316 gene (which is the gene encoding the peptide Shp316) has been inactivated, such as strain LMD9-Δblp::PcomX-luxABΔshp316::P32-cat (see Example 2 for details on this strain) is pre-cultivated in M17-lactose medium. The cells of the preculture are harvested (5000 g, 9 minutes, 20° C.) and washed twice in Chemically Defined Medium (CDM, see Annex I) and then resuspended in CDM. The washed cells are diluted in fresh CDM medium to obtain an optical density of 0.05 at 600 nm, and then incubated at 37° C. After 1.5 h of incubation, the culture is separated in 2 aliquots of 10 mL and 0 or 1000 nM of peptide are added in the culture samples. Finally, each 10 mL-aliquot is divided in 2 samples of 5 mL each. One of the 2 samples receives 1 μg/mL pGIUD0855ery, a plasmid bearing an erythromycin resistance gene. The competence phenotype of the samples is studied by performing natural transformation experiments as described in example 1. The cultures are grown for 6 hours and serial dilutions are plated on the surface of M17-lactose agar medium containing or not 2.5 μg/mL of erythromycin. The transformation rate in the presence or absence of peptide is calculated for each sample; it is expressed as the ratio of erythromycin-resistant cells among the total bacterial population.
The experimental strategy is described below. Strain LMD9-Δblp::PcomX-luxABΔshp316::P32-cat is precultivated in M17-lactose medium. The cells of the preculture were harvested (5000 g, 9 minutes, 20° C.) and washed twice in CDM and then resuspended in CDM. The washed cells are diluted in fresh CDM to obtain an optical density of 0.05 at 600 nm, and then incubated at 37° C. After 1.5 h of incubation, in one set of experiment, 1 μM of one of the tested synthetic peptides and 1 μg/mL of pGIUD0855ery were added to the culture; whereas 1 μg/mL of pGIUD0855ery but no synthetic peptide was added to the second set of experiment. The cultures were grown during 6 hours and serial dilutions were plated on the surface of M17-lactose agar medium containing 2.5 μg/mL of erythromycin to measure transformation efficiency.
Ability of peptides derived from Shp316 to restore the competence defect of LMD9-Δblp::PcomX-luxABΔshp316::P32-cat was further investigated focusing on the synthetic peptide PYFAGCL. Experimental work was performed as described above except that various concentrations of PYFAGCL were used: 0 nM, 1 nM, 10 nM, 100 nM, 500 nM, 1 μM, 2.5 μM and 5 μM. […]

S. thermophilus LMG18311 = experiment: Natural transformation in CDM upon addition of synthetic peptide; type: cell-based, Streptococcus thermophilus

Substance	Transformation rate, With peptide addition [1]	Restoration of the competence defect ([1]; result in words)	Transformation rate, With peptide addition (S. thermophilus LMG18311; 1 μM LPYFAGCL, 1 μg/mL pUC18_stu0855::P32cat, chloramphenicol selection)	Calculated efficiency of transformation (S. thermophilus LMG18311; LPYFAGCL-induced competence, forty six μg of LMD-9 genomic DNA, selection on CDM agar deprived of histidine)	Transformation rate ([1]; 1 nM PYFAGCL)	Transformation rate ([1]; 10 nM PYFAGCL)	Transformation rate ([1]; 100 nM PYFAGCL)	Transformation rate ([1]; 500 nM PYFAGCL)	Transformation rate ([1]; 1000 nM PYFAGCL)	Transformation rate ([1]; 2500 nM PYFAGCL)	Transformation rate ([1]; 5000 nM PYFAGCL)	Restoration of competence ([1]; concentrations lower than 100 nM, result in words)	Concentration at which maximum efficiency of the peptide was recorded ([1]; dose-response 0 nM to 5 μM)	Transformation rate, With peptide addition (S. thermophilus LMG18311; 1 μM PYFAGCL, 1 μg/mL pGIUD0855ery)	Increase of efficiency of transformation upon peptide addition (S. thermophilus LMG18311; 1 μM peptide in CDM versus no peptide)
LPYFAGCL (fragment) [synthetic peptide corresponding to a C-terminal fragment of Shp316]	3.18 × 10^−3	allowed to restore the competence defect	1.3 × 10^−1	0.00016 µg⁻¹	–	–	–	–	–	–	–	–	–	–	–
PYFAGCL (fragment)	4.78 × 10^−3	allowed to restore the competence defect	–	–	<10^−8	<10^−8	4.14 × 10^−7	1.01 × 10^−3	5.15 × 10^−3	3.10 × 10^−3	6.38 × 10^−3	did not restore the competence	1 µM	3.17 × 10^−4	1000 fold
